# Experiments:
# H1299 p53 R273H = assay: Cell Proliferation Assay (CellTiter-Glo, CTG), H1299 p53 R273H (NClH1299-inducible p53 R273H); format: cell-based; conditions: Homo sapiens, NCI-H1299, 120 h, NClH1299-inducible p53 R273H cells, 5 days, CellTiter-Glo
# Summary of the method: (§1)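 Cells seeded at 250-500 per well and exposed to compound for 5 days. Viability read by CellTiter-Glo luminescence after 10 min at room temperature; IC50 calculated. H1299 lines carry Tet-One inducible p53 mutant constructs introduced by lentiviral transduction.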
# H1299 p53 Y220C = assay: Cell Proliferation Assay (CellTiter-Glo, CTG), H1299 p53 Y220C (NClH1299-inducible p53 Y220C); format: cell-based; conditions: Homo sapiens, NCI-H1299, 120 h, NClH1299-inducible p53 Y220C cells, 5 days, CellTiter-Glo
# Summary of the method: as §1
# [1] = target: T1, p53 Y220C mutant protein (amino acid residues 94-293) (Homo sapiens, UniProt P04637, Y220C); assay: Thermal Shift Assay (TSA), dTM; format: binding; conditions: p53 Y220C, read-out: TSA P53 Y220C dTM; for ΔTm at 10 µM: 10 uM compound; for ΔTm at 100 µM: 100 uM compound
# T1 construct: p53 Y220C mutant protein (amino acid residues 94-293)
# Summary of the method: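 5 μM protein + 10 μM or 100 μM cpd, 3 h, 20 °C; 20 mM HEPES pH7.4, 100 mM NaCl, 0.01% Pluronic F-127, 1% DMSO, Sypro Orange 400-fold dil. Ramp 30→50 °C, 0.03 °C/s. TM by Boltzmann two-state fit.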
# NUGC3 p53 Y220C = assay: Cell Proliferation Assay (CellTiter-Glo, CTG), NUGC3 p53 Y220C; format: cell-based; conditions: Homo sapiens, NUGC-3, 120 h, NUGC3 cells, 5 days, CellTiter-Glo
# Summary of the method: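 Tet-One inducible p53 Y220C or R273H constructs were stably introduced into NCI-H1299 by lentiviral transduction; NUGC3 was used as is. Cells (250-500 per well) were exposed to compound for 5 days, then CellTiter-Glo was added for 10 min at room temperature and IC50 was calculated from luminescence.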
# p53 Y220C = p53 Y220C (Homo sapiens, UniProt P04637, Y220C); assay: Luciferase Reporter Assay (Luc), p53 response element, NClH1299 cells with inducible p53 Y220C; format: cell-based; conditions: luciferase reporter, NClH1299 inducible p53 Y220C, 6 hour; for AC50: read-out: Luc P53 Y220C AC50
# Summary of the method: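 Steps: seed 5,000 cells/well; induce mutant p53 with 0.5 ug/mL doxycycline for 24 h; treat with compound 6 h; add equal volume One-Glo, shake 5 min at room temperature; measure luciferase immediately.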
# [2] = target: T1, p53 Y220C mutant protein (amino acid residues 94-293); assay: Surface Plasmon Resonance (SPR) assay, Kd_kinetic; format: binding; conditions: SPR; p53 Y220C; read-out: SPR P53 Y220C KD kinetic
# Summary of the method: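 Surface plasmon resonance is run at 16 or 20 °C in 50 mM Tris pH 7.5 containing 100 mM NaCl, 1 mM DTT, 0.01% Brij35, 0.05% Tween-20 and 1% DMSO. Association and dissociation data are fitted to a 1:1 model.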
Structure (SMILES),IC50 (H1299 p53 R273H),IC50 (H1299 p53 Y220C),ΔTm at 10 µM [1],ΔTm at 100 µM [1],AC50 (p53 Y220C),Emax (p53 Y220C),Kd [2],IC50 (NUGC3 p53 Y220C)
CNC(=O)c1ccc(NCC#Cc2nc3c(N[C@H]4CCN(C)C4)cccn3c2SC(F)(F)F)c(OC)c1 [Example 243],≥ 10000 nM,750 to 1500 nM,5 to 10 °C,≥ 10 °C,1500 to 3000 nM,70 to 80%,< 10 nM,750 to 1500 nM
CNC(=O)c1ccc(OC)c(NCC#Cc2nc3c(N[C@H]4C[C@@H]5CC[C@H]4N5)cccn3c2SC(F)(F)F)c1 [Example 245],8000 to 10000 nM,1500 to 3000 nM,5 to 10 °C,≥ 10 °C,1500 to 3000 nM,< 70%,< 10 nM,< 750 nM
CNC(=O)c1ccc(OC)c(NCC#Cc2nn3c(N[C@@H]4CN(C)C[C@@H]4F)cccc3c2SC(F)(F)F)c1 [Example 252],≥ 10000 nM,< 750 nM,≥ 10 °C,,< 750 nM,80 to 90%,< 10 nM,< 750 nM
CNC(=O)c1ccc(OC)c(NCC#Cc2nn3c(N[C@@H]4CN(C)C[C@@H]4F)cccc3c2SC(F)(F)F)n1 [Example 253],≥ 10000 nM,< 750 nM,≥ 10 °C,,< 750 nM,80 to 90%,< 10 nM,< 750 nM
CNC(=O)c1cnc(OC)c(NCC#Cc2nc3c(N[C@@H]4CCN(C)C[C@@H]4F)nccn3c2SC(F)(F)F)c1 [Example 254],≥ 10000 nM,< 750 nM,≥ 10 °C,,< 750 nM,80 to 90%,< 10 nM,< 750 nM
CNC(=O)c1cnc(OC)c(NCC#Cc2cc3c(N[C@@H]4CCN(C)C[C@@H]4F)nccn3c2SC(F)(F)F)c1 [Example 255],8000 to 10000 nM,< 750 nM,≥ 10 °C,≥ 10 °C,< 750 nM,> 90%,< 10 nM,< 750 nM
COc1cc(P(C)(C)=O)ccc1NCC#Cc1cc2c(N[C@@H]3CCN(C)C[C@@H]3F)nccn2c1SC(F)F [Example 257],≥ 10000 nM,< 750 nM,≥ 10 °C,,< 750 nM,80 to 90%,< 10 nM,< 750 nM
CNC(=O)c1cnc(OC)c(NCC#Cc2nc3c(N[C@@H]4CCNC[C@@H]4F)cccn3c2SC(F)(F)F)c1 [Example 258],≥ 10000 nM,< 750 nM,≥ 10 °C,,< 750 nM,70 to 80%,< 10 nM,< 750 nM
CNC(=O)c1cnc(OC)c(NCC#Cc2nn3c(N[C@@H]4CCN(C)C[C@@H]4F)cccc3c2SC(F)(F)F)c1 [Example 260],8000 to 10000 nM,< 750 nM,≥ 10 °C,,< 750 nM,80 to 90%,< 10 nM,< 750 nM
CNC(=O)c1cnc(OC)c(NCC#Cc2nc3c(N[C@@H]4CCN(C)C[C@@H]4F)cccn3c2CC(F)(F)F)c1 [Example 261],≥ 10000 nM,750 to 1500 nM,5 to 10 °C,≥ 10 °C,1500 to 3000 nM,70 to 80%,< 10 nM,< 750 nM
CNC(=O)c1cnc(OC)c(NCC#Cc2nc3c(N[C@@H]4C[C@H]5CC[C@H](N5)[C@@H]4F)cccn3c2SC(F)(F)F)c1 [Example 264],8000 to 10000 nM,< 750 nM,≥ 10 °C,≥ 10 °C,< 750 nM,70 to 80%,< 10 nM,< 750 nM
CNC(=O)c1cc(NCC#Cc2nc3c(N[C@@H]4CCN(C)C[C@@H]4F)cccn3c2SC(F)(F)F)c2nccn2c1 [Example 277],≥ 10000 nM,< 750 nM,≥ 10 °C,,< 750 nM,> 90%,< 10 nM,< 750 nM
CNC(=O)c1ccc(NCC#Cc2nc3c(N[C@@H]4C[C@@H]5COC[C@H]([C@@H]4F)N5C)cccn3c2SC(F)(F)F)c(OC)c1 [Example 283],≥ 10000 nM,< 750 nM,≥ 10 °C,,< 750 nM,80 to 90%,< 10 nM,< 750 nM

# More lines, main results first:
IC50 (H1299 p53 R273H),IC50 (H1299 p53 Y220C),ΔTm at 10 µM [1],ΔTm at 100 µM [1],AC50 (p53 Y220C),Emax (p53 Y220C),Kd [2],Structure (SMILES),IC50 (NUGC3 p53 Y220C)
5000 to 8000 nM,< 750 nM,5 to 10 °C,≥ 10 °C,< 750 nM,80 to 90%,10 to 100 nM,CNC(=O)c1ccc(NCC#Cc2nc3c(NC4CCOCC4)cccn3c2SC(F)(F)F)c(OC)c1 [Example 241],< 750 nM
5000 to 8000 nM,< 750 nM,5 to 10 °C,≥ 10 °C,750 to 1500 nM,80 to 90%,< 10 nM,CNC(=O)c1ccc(NCC#Cc2nc3c(N[C@@H]4CCN(C)C4)cccn3c2SC(F)(F)F)c(OC)c1 [Example 242],< 750 nM
5000 to 8000 nM,< 750 nM,≥ 10 °C,,< 750 nM,80 to 90%,< 10 nM,CNC(=O)c1ccc(OC)c(NCC#Cc2nn3c(N[C@@H]4CNC[C@@H]4F)cccc3c2SC(F)(F)F)c1 [Example 250],< 750 nM
5000 to 8000 nM,< 750 nM,≥ 10 °C,,< 750 nM,> 90%,< 10 nM,CNC(=O)c1cnc(OC)c(NCC#Cc2cc3c(N[C@@H]4CCN(C)C[C@@H]4F)cccn3c2SC(F)(F)F)c1 [Example 256],< 750 nM
< 5000 nM,< 750 nM,≥ 10 °C,≥ 10 °C,< 750 nM,> 90%,< 10 nM,CNC(=O)c1cnc(OC)c(NCC#Cc2nn3c(N[C@@H]4CCN(C)C[C@@H]4F)cccc3c2SC(F)F)c1 [Example 268],< 750 nM
< 5000 nM,< 750 nM,≥ 10 °C,5 to 10 °C,< 750 nM,70 to 80%,< 10 nM,CNC(=O)c1ccc(OC)c(NCC#Cc2nn3c(N[C@@H]4C[C@H]5CC[C@H](N5)[C@@H]4F)cccc3c2SC(F)(F)F)c1 [Example 269],< 750 nM
< 5000 nM,< 750 nM,≥ 10 °C,,< 750 nM,80 to 90%,< 10 nM,CNC(=O)c1cnc(OC)c(NCC#Cc2nn3c(N[C@@H]4CCNC[C@@H]4F)cccc3c2SC(F)(F)F)c1 [Example 270],< 750 nM
< 5000 nM,< 750 nM,≥ 10 °C,≥ 10 °C,< 750 nM,80 to 90%,< 10 nM,CNC(=O)c1ccc(OC)c(NCC#Cc2nn3c(N[C@@H]4C[C@H]5CC[C@@H]([C@@H]4F)N5C)cccc3c2SC(F)(F)F)c1 [Example 284],< 750 nM
5000 to 8000 nM,< 750 nM,≥ 10 °C,≥ 10 °C,< 750 nM,80 to 90%,< 10 nM,CCNC(=O)c1ccc(OC)c(NCC#Cc2nn3c(N[C@@H]4CCN(C)C[C@@H]4F)cccc3c2SC(F)(F)F)c1 [Example 285],< 750 nM
< 5000 nM,< 750 nM,≥ 10 °C,,< 750 nM,80 to 90%,< 10 nM,CNC(=O)c1ccc(OC)c(NCC#Cc2nn3c(N[C@H]4C[C@@H]5CC[C@@H](N5)[C@H]4F)cccc3c2SC(F)(F)F)c1 [Example 287],< 750 nM
< 5000 nM,< 750 nM,≥ 10 °C,,< 750 nM,80 to 90%,< 10 nM,CNC(=O)c1ccc(OC)c(NCC#Cc2nn3c(N[C@H]4C[C@@H]5CC[C@H]([C@H]4F)N5C)cccc3c2SC(F)(F)F)c1 [Example 288],< 750 nM
5000 to 8000 nM,< 750 nM,≥ 10 °C,≥ 10 °C,< 750 nM,> 90%,< 10 nM,CNC(=O)c1ccc(OC)c(NCC#Cc2cc3c(N[C@@H]4CCNC[C@@H]4F)nccn3c2SC(F)(F)F)c1 [Example 289],< 750 nM

# From patent US20260374766A1, “METHODS FOR TREATING CANCER” (Antares Therapeutics, Inc., priority 2022, published 2026)
